Assay results as given in patent publication US10870652B2, “Compounds and methods for modulating bruton's tyrosine kinase” (CORVUS PHARMACEUTICALS, INC., priority 2016, dated 2020).

What was measured:
Format in all cases: biochemical
ITK = target: T1, ITK (Homo sapiens, UniProt Q08881); experiment: ITK IC50 kinase inhibition assay
T1 sequence (Q08881 1-620): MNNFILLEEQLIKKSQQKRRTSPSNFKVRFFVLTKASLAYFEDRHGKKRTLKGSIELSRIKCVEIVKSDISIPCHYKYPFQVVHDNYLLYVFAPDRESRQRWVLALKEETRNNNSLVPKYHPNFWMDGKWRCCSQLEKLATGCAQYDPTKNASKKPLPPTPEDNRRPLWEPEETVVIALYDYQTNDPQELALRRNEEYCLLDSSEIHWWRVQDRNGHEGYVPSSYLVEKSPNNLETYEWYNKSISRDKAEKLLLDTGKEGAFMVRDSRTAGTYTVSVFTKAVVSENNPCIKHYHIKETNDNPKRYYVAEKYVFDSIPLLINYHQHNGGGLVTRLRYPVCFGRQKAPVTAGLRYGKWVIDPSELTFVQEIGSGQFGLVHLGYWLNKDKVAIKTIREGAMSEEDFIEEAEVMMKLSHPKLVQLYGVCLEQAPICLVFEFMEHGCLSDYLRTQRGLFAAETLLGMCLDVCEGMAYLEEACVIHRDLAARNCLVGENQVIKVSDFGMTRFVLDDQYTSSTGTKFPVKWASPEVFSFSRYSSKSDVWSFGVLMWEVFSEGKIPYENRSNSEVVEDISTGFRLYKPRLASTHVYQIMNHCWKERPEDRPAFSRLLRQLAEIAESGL

BTK = BTK (Homo sapiens, UniProt Q06187); experiment: BTK IC50 kinase inhibition assay
JAK3 = target: T2, JAK3 (Homo sapiens, UniProt P52333); experiment: JAK3 IC50 kinase inhibition assay
T2 sequence (P52333 1-1124): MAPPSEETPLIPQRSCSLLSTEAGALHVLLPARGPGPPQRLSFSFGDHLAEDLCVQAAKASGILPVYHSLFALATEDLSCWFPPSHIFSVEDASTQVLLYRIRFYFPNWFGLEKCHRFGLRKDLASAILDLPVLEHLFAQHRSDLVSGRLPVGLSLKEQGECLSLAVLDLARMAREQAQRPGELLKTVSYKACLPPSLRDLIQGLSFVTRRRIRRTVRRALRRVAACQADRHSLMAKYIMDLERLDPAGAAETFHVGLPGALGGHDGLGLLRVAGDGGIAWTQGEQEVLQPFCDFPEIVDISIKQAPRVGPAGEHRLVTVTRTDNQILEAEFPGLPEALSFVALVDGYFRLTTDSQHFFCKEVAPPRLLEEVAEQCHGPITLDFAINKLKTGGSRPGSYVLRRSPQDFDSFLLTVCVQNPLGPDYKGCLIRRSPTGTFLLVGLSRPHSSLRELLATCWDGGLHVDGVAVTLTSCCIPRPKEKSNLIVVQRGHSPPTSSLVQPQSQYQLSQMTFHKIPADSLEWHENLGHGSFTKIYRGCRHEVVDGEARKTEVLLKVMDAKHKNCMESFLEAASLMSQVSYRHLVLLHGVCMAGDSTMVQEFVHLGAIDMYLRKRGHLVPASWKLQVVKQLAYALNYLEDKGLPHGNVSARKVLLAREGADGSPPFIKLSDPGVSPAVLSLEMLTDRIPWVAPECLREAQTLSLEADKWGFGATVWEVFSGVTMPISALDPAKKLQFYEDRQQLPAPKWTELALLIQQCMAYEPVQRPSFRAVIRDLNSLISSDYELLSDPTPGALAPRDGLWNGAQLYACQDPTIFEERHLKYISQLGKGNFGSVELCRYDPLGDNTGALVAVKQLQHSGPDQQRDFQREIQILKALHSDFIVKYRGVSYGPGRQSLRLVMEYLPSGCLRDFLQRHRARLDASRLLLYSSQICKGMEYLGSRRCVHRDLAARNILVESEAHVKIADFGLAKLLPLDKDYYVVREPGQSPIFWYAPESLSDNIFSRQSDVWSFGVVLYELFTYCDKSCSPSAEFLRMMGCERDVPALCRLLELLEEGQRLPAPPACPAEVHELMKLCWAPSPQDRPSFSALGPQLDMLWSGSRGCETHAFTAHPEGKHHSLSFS

TXK = target: T3, TXK (Homo sapiens, UniProt P42681); experiment: TXK IC50 kinase inhibition assay
T3 sequence (P42681 1-527): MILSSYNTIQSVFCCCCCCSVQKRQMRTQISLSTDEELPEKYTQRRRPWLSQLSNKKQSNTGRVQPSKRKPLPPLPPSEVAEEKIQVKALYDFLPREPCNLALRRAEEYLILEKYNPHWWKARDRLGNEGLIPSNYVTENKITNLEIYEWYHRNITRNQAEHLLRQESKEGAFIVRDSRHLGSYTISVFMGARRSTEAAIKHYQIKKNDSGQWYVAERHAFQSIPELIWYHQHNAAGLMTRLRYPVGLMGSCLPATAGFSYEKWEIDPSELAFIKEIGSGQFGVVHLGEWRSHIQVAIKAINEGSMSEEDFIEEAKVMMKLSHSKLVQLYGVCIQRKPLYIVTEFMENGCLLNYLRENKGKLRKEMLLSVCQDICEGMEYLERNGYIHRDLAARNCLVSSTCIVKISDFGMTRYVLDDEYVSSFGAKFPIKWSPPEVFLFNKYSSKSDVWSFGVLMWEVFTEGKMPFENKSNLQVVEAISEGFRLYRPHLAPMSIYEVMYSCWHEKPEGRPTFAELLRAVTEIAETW

BTK, sequence (Q06187 whole entry): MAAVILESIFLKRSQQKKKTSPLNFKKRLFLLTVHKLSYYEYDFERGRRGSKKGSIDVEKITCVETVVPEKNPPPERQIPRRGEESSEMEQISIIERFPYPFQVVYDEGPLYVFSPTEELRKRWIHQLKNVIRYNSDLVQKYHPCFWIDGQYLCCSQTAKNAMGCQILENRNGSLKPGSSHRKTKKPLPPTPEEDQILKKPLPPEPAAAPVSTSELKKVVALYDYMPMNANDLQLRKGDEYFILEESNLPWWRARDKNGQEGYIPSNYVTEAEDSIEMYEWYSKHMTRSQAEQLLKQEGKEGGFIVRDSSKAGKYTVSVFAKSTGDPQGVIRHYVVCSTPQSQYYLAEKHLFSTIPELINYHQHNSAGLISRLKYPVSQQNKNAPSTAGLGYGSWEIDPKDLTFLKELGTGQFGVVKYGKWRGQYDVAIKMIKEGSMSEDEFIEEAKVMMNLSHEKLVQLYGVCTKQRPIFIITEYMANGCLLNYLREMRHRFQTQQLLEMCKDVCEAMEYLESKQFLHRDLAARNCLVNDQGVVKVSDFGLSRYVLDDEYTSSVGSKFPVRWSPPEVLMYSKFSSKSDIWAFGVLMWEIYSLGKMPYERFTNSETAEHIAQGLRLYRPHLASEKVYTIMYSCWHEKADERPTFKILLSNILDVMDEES

IC50 (ITK) [µM]	IC50 (BTK) [µM]	IC50 (JAK3) [µM]	IC50 (TXK) [µM]	Structure (SMILES)
> 0.5	< 0.1	> 0.5	< 0.1	C=CC(=O)N1CCC[C@@H](n2nc(-c3ccc(Oc4ccccc4F)cc3)c3cncnc32)C1 [Compound A40, (R)-1-(3-(3-(4-(2-fluorophenoxy)phenyl)-1H-pyrazolo[3,4-d]pyrimidin-1-yl)piperidin-1-yl)prop-2-en-1-one]
> 0.5	< 0.1	> 0.5	< 0.1	C=CC(=O)N1CC(F)(F)C[C@H]1Cn1nc(-c2ccc(Oc3ccccc3)cc2)c2cncnc21 [Compound A41, (S)-1-(4,4-difluoro-2-((3-(4-phenoxyphenyl)-1H-pyrazolo[3,4-d]pyrimidin-1-yl)methyl)pyrrolidin-1-yl)prop-2-en-1-one]
> 0.5	0.1 to 0.5	> 0.5	> 0.5	C=CC(=O)NCCn1nc(-c2ccc(Oc3ccccc3)cc2)c2cncnc21 [Compound A42, N-(2-(3-(4-phenoxyphenyl)-1H-pyrazolo[3,4-d]pyrimidin-1-yl)ethyl)acrylamide]
> 0.5	< 0.1	> 0.5	0.1 to 0.5	C=CC(=O)N[C@@H](C)Cn1nc(-c2ccc(Oc3ccccc3)cc2)c2cncnc21 [Compound A43, (S)—N-(1-(3-(4-phenoxyphenyl)-1H-pyrazolo[3,4-d]pyrimidin-1-yl)propan-2-yl)acrylamide]
> 0.5	< 0.1	> 0.5	0.1 to 0.5	C=CC(=O)N1CCCC[C@H]1Cn1nc(-c2ccc(Oc3ccccc3)cc2)c2cncnc21 [Compound A44, (S)-1-(2-((3-(4-phenoxyphenyl)-1H-pyrazolo[3,4-d]pyrimidin-1-yl)methyl)piperidin-1-yl)prop-2-en-1-one]
> 0.5	< 0.1	> 0.5	< 0.1	C=CC(=O)N1CCC[C@@]1(C)Cn1nc(-c2ccc(Oc3ccccc3)cc2)c2cncnc21 [Compound A45, (S)-1-(2-methyl-2-((3-(4-phenoxyphenyl)-1H-pyrazolo[3,4-d]pyrimidin-1-yl)methyl)pyrrolidin-1-yl)prop-2-en-1-one]
> 0.5	< 0.1	> 0.5	< 0.1	C=CC(=O)N1CCC[C@H]1Cn1nc(-c2ccc(Oc3cccc(CC)c3)cc2)c2cncnc21 [Compound A46, (S)-1-(2-((3-(4-(3-ethylphenoxy)phenyl)-1H-pyrazolo[3,4-d]pyrimidin-1-yl)methyl)pyrrolidin-1-yl)prop-2-en-1-one]
> 0.5	< 0.1	> 0.5	< 0.1	C=CC(=O)N1CCC[C@H]1Cn1nc(-c2ccc(Oc3cccc(C(F)F)c3)cc2)c2cncnc21 [Compound A47, (S)-1-(2-((3-(4-(3-(difluoromethyl)phenoxy)phenyl)-1H-pyrazolo[3,4-d]pyrimidin-1-yl)methyl)pyrrolidin-1-yl)prop-2-en-1-one]
> 0.5	< 0.1	> 0.5	< 0.1	C=CC(=O)N1CCC[C@H]1Cn1nc(-c2ccc(Oc3cccc(C)c3)cc2)c2cncnc21 [Compound A48, (S)-1-(2-((3-(4-(m-tolyloxy)phenyl)-1H-pyrazolo[3,4-d]pyrimidin-1-yl)methyl)pyrrolidin-1-yl)prop-2-en-1-one]
> 0.5	< 0.1	> 0.5	< 0.1	C=CC(=O)N1CC(C)(C)C[C@H]1Cn1nc(-c2ccc(Oc3ccccc3)cc2)c2cncnc21 [Compound A49, (S)-1-(4,4-dimethyl-2-((3-(4-phenoxyphenyl)-1H-pyrazolo[3,4-d]pyrimidin-1-yl)methyl)pyrrolidin-1-yl)prop-2-en-1-one]
> 0.5	< 0.1	> 0.5	0.1 to 0.5	C=CC(=O)N1CCC[C@@H](n2nc(-c3ccc(Oc4c(F)cccc4F)cc3)c3cncnc32)C1 [Compound A50, (R)-1-(3-(3-(4-(2,6-difluorophenoxy)phenyl)-1H-pyrazolo[3,4-d]pyrimidin-1-yl)piperidin-1-yl)prop-2-en-1-one]
> 0.5	< 0.1	> 0.5	< 0.1	C=CC(=O)N1CC[C@H]1Cn1nc(-c2ccc(Oc3ccccc3)cc2)c2cncnc21 [Compound A51, (S)-1-(2-((3-(4-phenoxyphenyl)-1H-pyrazolo[3,4-d]pyrimidin-1-yl)methyl)azetidin-1-yl)prop-2-en-1-one]
> 0.5	< 0.1	> 0.5	< 0.1	C=CC(=O)N1CCC[C@@]1(C)Cn1nc(-c2ccc(Oc3ccccc3)cc2F)c2cncnc21 [Compound A52, (S)-1-(2-((3-(2-fluoro-4-phenoxyphenyl)-1H-pyrazolo[3,4-d]pyrimidin-1-yl)methyl)-2-methylpyrrolidin-1-yl)prop-2-en-1-one]
> 0.5	< 0.1	> 0.5	< 0.1	C=CC(=O)N1CC[C@@H]1Cn1nc(-c2ccc(Oc3ccccc3)cc2)c2cncnc21 [Compound A53, (R)-1-(2-((3-(4-phenoxyphenyl)-1H-pyrazolo[3,4-d]pyrimidin-1-yl)methyl)azetidin-1-yl)prop-2-en-1-one]
> 0.5	> 0.5	> 0.5	> 0.5	C=CC(=O)N1CCC2(CC1)CC(n1nc(-c3ccc(Oc4ccccc4)cc3)c3cncnc31)C2 [Compound A54, 1-(2-(3-(4-phenoxyphenyl)-1H-pyrazolo[3,4-d]pyrimidin-1-yl)-7-azaspiro[3.5]nonan-7-yl)prop-2-en-1-one]
> 0.5	0.1 to 0.5	> 0.5	> 0.5	C=CC(=O)N[C@H]1C[C@H](n2nc(-c3ccc(Oc4ccccc4)cc3)c3cncnc32)C1 [Compound A55, N-((1r,3r)-3-(3-(4-phenoxyphenyl)-1H-pyrazolo[3,4-d]pyrimidin-1-yl)cyclobutyl)acrylamide]
> 0.5	> 0.5	> 0.5	> 0.5	C=CC(=O)N[C@H]1CC[C@H](n2nc(-c3ccc(Oc4ccccc4)cc3)c3cncnc32)CC1 [Compound A56, N-((1r,4r)-4-(3-(4-phenoxyphenyl)-1H-pyrazolo[3,4-d]pyrimidin-1-yl)cyclohexyl)acrylamide]
> 0.5	> 0.5	> 0.5	> 0.5	CC#CC(=O)N1CCC(Cn2nc(-c3ccc(Oc4ccccc4)cc3)c3cncnc32)CC1 [Compound A57, 1-(4-((3-(4-phenoxyphenyl)-1H-pyrazolo[3,4-d]pyrimidin-1-yl)methyl)piperidin-1-yl)but-2-yn-1-one]
